# Test results: PMC5923399 (Marine Drugs, 2018)
# Where a SMILES comes first, the peptide text is derived from it. Bridges are numbered along the chain shown (N, C = ends).
# What was measured:
# rat α3β2 nAChRs = biological target: T1, rat α3β2 nAChRs (Rattus norvegicus, UniProt P04757+P12390); assay: cell-based
# T1 construct: expressed in transfected cells; host or cells: Xenopus oocytes (cRNA injection)
# GABABR-coupled Cav2.2 = biological target: T2, GABABR-coupled Cav2.2 (Homo sapiens, UniProt O75899+Q9UBS5); assay: cell-based; parameters: species or system human GABABR and rat Cav2.2
# T2 construct: expressed in transfected cells; host or cells: HEK293T cells, transient transfection; GABAB subunit plasmids from David J. Adams, University of Wollongong
# T2 sequence (Q9UBS5 15-961 limits assumed): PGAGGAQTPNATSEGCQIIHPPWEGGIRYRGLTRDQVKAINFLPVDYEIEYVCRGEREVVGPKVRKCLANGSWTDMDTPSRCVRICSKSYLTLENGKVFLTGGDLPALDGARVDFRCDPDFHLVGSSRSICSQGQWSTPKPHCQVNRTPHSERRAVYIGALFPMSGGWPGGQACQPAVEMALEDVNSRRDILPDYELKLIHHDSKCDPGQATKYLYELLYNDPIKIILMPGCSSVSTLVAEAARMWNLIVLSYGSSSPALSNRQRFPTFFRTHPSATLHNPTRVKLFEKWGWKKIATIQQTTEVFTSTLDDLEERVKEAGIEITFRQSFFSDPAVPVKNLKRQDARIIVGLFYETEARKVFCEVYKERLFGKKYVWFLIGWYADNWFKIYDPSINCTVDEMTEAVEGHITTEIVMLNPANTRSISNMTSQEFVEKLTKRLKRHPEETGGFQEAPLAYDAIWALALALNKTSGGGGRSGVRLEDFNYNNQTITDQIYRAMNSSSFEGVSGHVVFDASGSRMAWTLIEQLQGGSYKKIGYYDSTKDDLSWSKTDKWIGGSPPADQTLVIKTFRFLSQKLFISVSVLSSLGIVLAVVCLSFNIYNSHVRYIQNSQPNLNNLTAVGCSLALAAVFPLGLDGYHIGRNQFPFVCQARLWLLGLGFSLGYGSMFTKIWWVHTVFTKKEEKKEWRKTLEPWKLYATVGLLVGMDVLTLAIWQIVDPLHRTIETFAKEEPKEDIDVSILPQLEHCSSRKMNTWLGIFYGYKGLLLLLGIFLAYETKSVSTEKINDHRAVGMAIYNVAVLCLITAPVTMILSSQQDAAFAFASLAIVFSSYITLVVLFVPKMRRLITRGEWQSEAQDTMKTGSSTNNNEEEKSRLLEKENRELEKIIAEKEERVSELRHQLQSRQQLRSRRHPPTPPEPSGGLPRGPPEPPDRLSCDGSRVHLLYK
# T2 sequence (O75899 42-941): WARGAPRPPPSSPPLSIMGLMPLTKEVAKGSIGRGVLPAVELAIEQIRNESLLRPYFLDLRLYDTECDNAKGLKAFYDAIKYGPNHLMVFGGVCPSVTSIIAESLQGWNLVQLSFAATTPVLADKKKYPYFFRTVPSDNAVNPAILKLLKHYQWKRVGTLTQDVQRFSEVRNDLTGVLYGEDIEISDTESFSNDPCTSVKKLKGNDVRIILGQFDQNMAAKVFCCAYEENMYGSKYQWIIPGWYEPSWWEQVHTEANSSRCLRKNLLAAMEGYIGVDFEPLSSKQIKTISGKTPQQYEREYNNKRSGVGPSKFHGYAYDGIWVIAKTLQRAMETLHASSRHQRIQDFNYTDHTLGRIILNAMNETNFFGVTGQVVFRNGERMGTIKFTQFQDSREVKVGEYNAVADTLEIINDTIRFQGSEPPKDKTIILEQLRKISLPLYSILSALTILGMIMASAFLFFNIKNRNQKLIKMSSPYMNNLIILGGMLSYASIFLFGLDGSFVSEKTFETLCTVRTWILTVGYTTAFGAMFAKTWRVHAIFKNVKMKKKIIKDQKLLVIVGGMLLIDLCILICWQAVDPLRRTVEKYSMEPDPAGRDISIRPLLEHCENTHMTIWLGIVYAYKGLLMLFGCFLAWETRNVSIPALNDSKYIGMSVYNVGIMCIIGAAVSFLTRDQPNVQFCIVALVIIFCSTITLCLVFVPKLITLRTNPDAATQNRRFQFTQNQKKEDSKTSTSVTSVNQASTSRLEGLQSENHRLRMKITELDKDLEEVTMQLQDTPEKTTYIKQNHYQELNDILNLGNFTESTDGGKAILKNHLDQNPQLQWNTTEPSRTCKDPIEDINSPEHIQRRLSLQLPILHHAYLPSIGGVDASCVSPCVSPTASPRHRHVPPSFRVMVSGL
# hα3β4 nAChR = details: cited from earlier work
# hα4β2 nAChR = details: cited from earlier work
# hα3β2 nAChR = details: cited from earlier work
# α4β2 nAChR = biological target: T3, α4β2 nAChR (Rattus norvegicus, UniProt P09483+P12390); details: cited from earlier work
# T3 construct: expressed in transfected cells; host or cells: Xenopus oocytes (cRNA injection)
# α7 nAChR = biological target: T4, α7 nAChR (Rattus norvegicus, UniProt Q05941); details: cited from earlier work
# T4 construct: expressed in transfected cells; host or cells: Xenopus oocytes (cRNA injection)
# α3β2 nAChR = details: cited from earlier work
# α9α10 nAChR = biological target: T5, α9α10 nAChR (Rattus norvegicus, UniProt P43144+Q9JLB5); details: read-out: IC50 α9α10; cited from earlier work
# T5 construct: expressed in transfected cells; host or cells: Xenopus oocytes (cRNA injection)
# T5 sequence (P43144 26-479 limits assumed): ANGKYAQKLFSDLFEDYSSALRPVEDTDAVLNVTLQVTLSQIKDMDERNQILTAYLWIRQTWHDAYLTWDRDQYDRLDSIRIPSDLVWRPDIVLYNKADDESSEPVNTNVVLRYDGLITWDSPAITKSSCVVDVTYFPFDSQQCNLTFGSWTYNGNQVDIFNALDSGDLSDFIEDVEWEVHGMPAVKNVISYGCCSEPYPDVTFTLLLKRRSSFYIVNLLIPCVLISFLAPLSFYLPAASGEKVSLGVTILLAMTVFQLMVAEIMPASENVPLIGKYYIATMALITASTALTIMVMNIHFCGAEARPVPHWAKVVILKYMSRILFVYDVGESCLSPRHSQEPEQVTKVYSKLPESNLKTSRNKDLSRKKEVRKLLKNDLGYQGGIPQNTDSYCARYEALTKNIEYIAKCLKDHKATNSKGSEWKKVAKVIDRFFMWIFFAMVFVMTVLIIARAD
# T5 sequence (Q9JLB5 25-447 limits assumed): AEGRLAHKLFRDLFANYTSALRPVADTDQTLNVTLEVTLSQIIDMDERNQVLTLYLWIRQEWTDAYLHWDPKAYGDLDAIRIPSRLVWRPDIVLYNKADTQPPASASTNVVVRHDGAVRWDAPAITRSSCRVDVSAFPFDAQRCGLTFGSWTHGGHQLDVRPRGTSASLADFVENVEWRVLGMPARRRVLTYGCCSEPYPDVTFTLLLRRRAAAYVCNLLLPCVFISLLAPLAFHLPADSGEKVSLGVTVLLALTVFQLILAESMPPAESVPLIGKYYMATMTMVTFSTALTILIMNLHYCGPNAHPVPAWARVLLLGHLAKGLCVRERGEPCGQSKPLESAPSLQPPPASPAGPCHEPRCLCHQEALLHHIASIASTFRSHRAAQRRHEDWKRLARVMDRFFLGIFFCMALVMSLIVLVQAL
# T1 sequence (P04757 26-499 limits assumed): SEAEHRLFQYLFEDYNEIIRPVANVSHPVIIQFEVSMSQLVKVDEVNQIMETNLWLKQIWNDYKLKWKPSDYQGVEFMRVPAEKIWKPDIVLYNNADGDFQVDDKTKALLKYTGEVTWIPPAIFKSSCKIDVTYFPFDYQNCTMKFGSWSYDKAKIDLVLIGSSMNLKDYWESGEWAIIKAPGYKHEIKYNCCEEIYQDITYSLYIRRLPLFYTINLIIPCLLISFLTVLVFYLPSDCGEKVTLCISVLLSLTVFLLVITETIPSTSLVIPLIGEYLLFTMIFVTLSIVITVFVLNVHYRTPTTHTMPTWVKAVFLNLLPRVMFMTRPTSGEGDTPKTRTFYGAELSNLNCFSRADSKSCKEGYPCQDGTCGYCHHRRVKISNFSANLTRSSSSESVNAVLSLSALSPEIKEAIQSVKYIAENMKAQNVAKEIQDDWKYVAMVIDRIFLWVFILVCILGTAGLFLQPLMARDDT
# T1 sequence (P12390 25-500 limits assumed): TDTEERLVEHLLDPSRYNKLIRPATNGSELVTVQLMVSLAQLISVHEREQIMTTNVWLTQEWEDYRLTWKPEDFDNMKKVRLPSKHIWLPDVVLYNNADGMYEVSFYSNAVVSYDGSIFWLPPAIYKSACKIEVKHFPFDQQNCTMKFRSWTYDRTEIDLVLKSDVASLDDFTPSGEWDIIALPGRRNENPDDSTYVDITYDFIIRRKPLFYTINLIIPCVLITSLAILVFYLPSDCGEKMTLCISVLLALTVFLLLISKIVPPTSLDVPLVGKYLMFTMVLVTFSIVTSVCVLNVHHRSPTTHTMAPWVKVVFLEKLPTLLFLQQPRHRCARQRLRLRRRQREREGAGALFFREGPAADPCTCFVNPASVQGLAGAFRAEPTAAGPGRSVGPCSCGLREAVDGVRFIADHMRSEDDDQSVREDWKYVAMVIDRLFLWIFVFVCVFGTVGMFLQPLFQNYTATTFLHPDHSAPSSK
compound,measurement,setting,value
"C[C@@H]1NC(=O)[C@@H]2CCCN2C(=O)[C@H](Cc2c[nH]cn2)NC(=O)[C@H](CO)NC(=O)[C@@H]2CSSC[C@H](NC1=O)C(=O)N[C@@H](CO)C(=O)NCC(=O)N[C@@H](CC(N)=O)C(=O)N[C@@H](CC(N)=O)C(=O)N1CCC[C@H]1C(=O)N[C@@H](Cc1ccc(O)cc1)C(=O)N[C@@H](Cc1ccccc1)C(=O)N[C@H](C(N)=O)CSSC[C@H](NC(=O)CN)C(=O)N2 [Lt1.3-I] (H-GCCSHPACSGNNPYFC-NH2; disulfide 2-16, 3-8)",IC50,rat α3β2 nAChRs,> 10000 nM
same,IC50,GABABR-coupled Cav2.2,33.9 nM
same,inhibition at 0.1 µM,"GABABR-coupled Cav2.2; HEK-293T, read-out: inhibition of peak current amplitude, SEM",28 ± 3.8%
"C[C@@H]1NC(=O)CNC(=O)[C@H](CO)NC(=O)[C@@H]2CSSC[C@H](NC(=O)CN)C(=O)N[C@@H](CSSC[C@@H](C(N)=O)NC(=O)[C@H](Cc3ccccc3)NC(=O)[C@H](Cc3ccc(O)cc3)NC(=O)[C@@H]3CCCN3C(=O)[C@H](CC(N)=O)NC1=O)C(=O)N[C@@H](CO)C(=O)N[C@@H](Cc1c[nH]cn1)C(=O)N1CCC[C@H]1C(=O)N[C@@H](C)C(=O)N2 [Lt1.3[N11A]] (H-GCCSHPACSGANPYFC-NH2; disulfide 2-8, 3-16; N-terminus assumed)",IC50,rat α3β2 nAChRs,> 10000 nM
C[C@@H]1NC(=O)[C@@H]2CSSC[C@H](NC(=O)CN)C(=O)N[C@@H](CSSC[C@@H](C(N)=O)NC(=O)[C@H](Cc3ccccc3)NC(=O)[C@H](Cc3ccc(O)cc3)NC(=O)[C@@H]3CCCN3C(=O)[C@H](CC(N)=O)NC(=O)[C@H](CC(N)=O)NC(=O)CNC1=O)C(=O)N[C@@H](CO)C(=O)N[C@@H](Cc1c[nH]cn1)C(=O)N1CCC[C@H]1C(=O)N[C@@H](C)C(=O)N2 [Lt1.3[S9A]],IC50,rat α3β2 nAChRs,35.4 nM
"G CC SHPA C AGNNQHI C * (bicyclic or more) [GIC, α4/7-CTx targeting nAChR α3β2]",IC50,hα3β4 nAChR,755 nM
same,IC50,hα4β2 nAChR,309 nM
same,IC50,hα3β2 nAChR,1.1 nM
"G CC SNPV C HLEHSNL C * (bicyclic or more) (GCCSNPVCHLEHSNLC) [MII, α4/7-CTx targeting nAChR α3β2]",IC50,α4β2 nAChR,548 nM
same,IC50,α7 nAChR,~200 nM
"G CC SNPV C HLEHSNL C * (bicyclic or more) [MII, α4/7-CTx targeting nAChR α3β2]",IC50,α3β2 nAChR,0.5 nM
"GG CC SHPA C AANNQD(sTy) C * (bicyclic or more) [AnIB, α4/7-CTx targeting nAChR α3β2]",IC50,α3β2 nAChR,0.3 nM
"IRDE CC SNPA C RVNNOHV C RRR (bicyclic or more) [ArIA, α4/7-CTx targeting nAChR α3β2]",IC50,α3β2 nAChR,18 nM
"PE CC THPA C HVSHPEL C * (bicyclic or more) [Mr1.7, α4/7-CTx targeting nAChR α3β2]",IC50,α9α10 nAChR,188 nM
same,IC50,α3β2 nAChR,53.1 nM
"SG CC SNPA C RVNNPNI C * (bicyclic or more) (SGCCSNPACRVNNPNIC) [LsIA, α4/7-CTx targeting nAChR α3β2]",IC50,α7 nAChR,10.1 nM
"SG CC SNPA C RVNNPNI C * (bicyclic or more) [LsIA, α4/7-CTx targeting nAChR α3β2]",IC50,α3β2 nAChR,10.3 nM
